From the supplement of paper PMC10307832

Legend:
Assay in all cases: relative viability (nuclei count vs DMSO), 5 days (fraction); higher = more cells survive
HOP-62 = tested on: HOP-62
Summary of the method: (§1)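 Values are medians from duplicate plates. Each reflects relative viability, defined as the nuclei count of treated wells over that of vehicle wells. Lung cancer cell lines in 1536-well plates were pin-tool dosed one day after seeding with one drug alone or with a fixed anchor-drug dose plus five library-drug doses (not always all listed) in √10 steps, then fixed, stained and imaged at 4× after 5 days.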

NCI-H2170 = tested on: NCI-H2170
Summary of the method: as §1

LXF-289 = tested on: LXF-289
Summary of the method: as §1

EKVX = tested on: EKVX
Summary of the method: as §1

NCI-H1563 = tested on: NCI-H1563
Summary of the method: as §1

NCI-H1666 = tested on: NCI-H1666
Summary of the method: as §1

NCI-H2405 = tested on: NCI-H2405
Summary of the method: as §1

UMC-11 = tested on: UMC-11
Summary of the method: as §1

BEN = tested on: BEN
Summary of the method: as §1

HCC-827 = tested on: HCC-827
Summary of the method: as §1

NCI-H838 = tested on: NCI-H838
Summary of the method: as §1

EPLC-272H = tested on: EPLC-272H
Summary of the method: as §1

LU99A = tested on: LU99A
Summary of the method: as §1

ABC-1 = tested on: ABC-1
Summary of the method: as §1

NCI-H3122 = tested on: NCI-H3122
Summary of the method: as §1

NCI-H727 = tested on: NCI-H727
Summary of the method: as §1

NCI-H23 = tested on: NCI-H23
Summary of the method: as §1

SK-MES-1 = tested on: SK-MES-1
Summary of the method: as §1

NCI-H358 = tested on: NCI-H358
Summary of the method: as §1

NCI-H1975 = tested on: NCI-H1975
Summary of the method: as §1

NCI-H520 = tested on: NCI-H520
Summary of the method: as §1

NCI-H322M = tested on: NCI-H322M
Summary of the method: as §1

In the case of `COCC1(CO)C(=O)C2CCN1CC2` (configuration not stated) [PRIMA-1MET] + COc1cccc2cc(-c3nc([C@H]4CC[C@H](C(=O)O)CC4)n4ncnc(N)c34)[nH]c12 [OSI-027] (partner 0.5 µM), the relative viability (HOP-62; first compound 0.2 µM) is reported as 0.965, the relative viability (HOP-62; first compound 0.6325 µM) is reported as 0.808 and the relative viability (HOP-62; first compound 2 µM) is reported as 0.757. For the same compound, the relative viability (HOP-62; first compound 6.325 µM) was 0.88, the relative viability (HOP-62; first compound 20 µM) was 0.754 and the relative viability (NCI-H2170; first compound 0.2 µM) was 0.494. For the same compound, the relative viability (NCI-H2170; first compound 0.6325 µM) was 0.634, the relative viability (NCI-H2170; first compound 2 µM) was 0.722 and the relative viability (NCI-H2170; first compound 6.325 µM) was 0.718. For the same compound, the relative viability (NCI-H2170; first compound 20 µM) was 0.713, the relative viability (LXF-289; first compound 0.2 µM) was 0.889 and the relative viability (LXF-289; first compound 0.6325 µM) was 0.803. The relative viability (LXF-289; first compound 2 µM) was 0.527, the relative viability (LXF-289; first compound 6.325 µM) was 0.874 and the relative viability (LXF-289; first compound 20 µM) was 0.759. It also gave a relative viability (EKVX; first compound 0.2 µM) of 0.915, a relative viability (EKVX; first compound 0.6325 µM) of 0.723 and a relative viability (EKVX; first compound 6.325 µM) of 0.78. The relative viability (EKVX; first compound 20 µM) was 0.695, the relative viability (NCI-H1563; first compound 0.2 µM) was 0.854 and the relative viability (NCI-H1563; first compound 0.6325 µM) was 0.789. For the same compound, the relative viability (NCI-H1563; first compound 2 µM) was 0.735, the relative viability (NCI-H1563; first compound 6.325 µM) was 0.744 and the relative viability (NCI-H1563; first compound 20 µM) was 0.327. The relative viability (NCI-H1666; first compound 0.2 µM) was 0.791, the relative viability (NCI-H1666; first compound 0.6325 µM) was 0.87 and the relative viability (NCI-H1666; first compound 2 µM) was 0.827. The relative viability (NCI-H1666; first compound 6.325 µM) was 0.826, the relative viability (NCI-H1666; first compound 20 µM) was 0.714 and the relative viability (NCI-H2405; first compound 0.2 µM) was 0.501. It also gave a relative viability (NCI-H2405; first compound 0.6325 µM) of 0.653, a relative viability (NCI-H2405; first compound 6.325 µM) of 0.591 and a relative viability (NCI-H2405; first compound 20 µM) of 0.499. The relative viability (UMC-11; first compound 0.2 µM) was 0.478, the relative viability (UMC-11; first compound 0.6325 µM) was 0.46 and the relative viability (UMC-11; first compound 2 µM) was 0.432. The relative viability (UMC-11; first compound 6.325 µM) was 0.485, the relative viability (UMC-11; first compound 20 µM) was 0.444 and the relative viability (BEN; first compound 0.2 µM) was 0.283. The relative viability (BEN; first compound 0.6325 µM) was 0.304, the relative viability (BEN; first compound 6.325 µM) was 0.287 and the relative viability (BEN; first compound 20 µM) was 0.336. For the same compound, the relative viability (HCC-827; first compound 0.2 µM) was 0.694, the relative viability (HCC-827; first compound 0.6325 µM) was 0.668 and the relative viability (HCC-827; first compound 2 µM) was 0.625. It also gave a relative viability (HCC-827; first compound 6.325 µM) of 0.784, a relative viability (HCC-827; first compound 20 µM) of 0.748 and a relative viability (NCI-H838; first compound 0.2 µM) of 0.428. The relative viability (NCI-H838; first compound 0.6325 µM) was 0.5, the relative viability (NCI-H838; first compound 2 µM) was 0.295 and the relative viability (NCI-H838; first compound 6.325 µM) was 0.395. For the same compound, the relative viability (NCI-H838; first compound 20 µM) was 0.0935, the relative viability (EPLC-272H; first compound 2 µM) was 0.235 and the relative viability (EPLC-272H; first compound 6.325 µM) was 0.27. For the same compound, the relative viability (EPLC-272H; first compound 20 µM) was 0.0689, the relative viability (LU99A; first compound 0.2 µM) was 0.322 and the relative viability (LU99A; first compound 0.6325 µM) was 0.29. For the same compound, the relative viability (LU99A; first compound 2 µM) was 0.292, the relative viability (LU99A; first compound 6.325 µM) was 0.268 and the relative viability (LU99A; first compound 20 µM) was 0.0893. It also gave a relative viability (ABC-1; first compound 0.2 µM) of 0.37, a relative viability (ABC-1; first compound 0.6325 µM) of 0.401 and a relative viability (ABC-1; first compound 2 µM) of 0.349. The relative viability (ABC-1; first compound 6.325 µM) was 0.48, the relative viability (ABC-1; first compound 20 µM) was 0.0792 and the relative viability (NCI-H3122; first compound 0.2 µM) was 0.594. For the same compound, the relative viability (NCI-H3122; first compound 0.6325 µM) was 0.871, the relative viability (NCI-H3122; first compound 6.325 µM) was 0.74 and the relative viability (NCI-H3122; first compound 20 µM) was 0.831. The relative viability (NCI-H727; first compound 0.2 µM) was 0.357, the relative viability (NCI-H727; first compound 0.6325 µM) was 0.371 and the relative viability (NCI-H727; first compound 2 µM) was 0.498. The relative viability (NCI-H727; first compound 6.325 µM) was 0.536, the relative viability (NCI-H727; first compound 20 µM) was 0.338 and the relative viability (NCI-H23; first compound 0.2 µM) was 0.456. It also gave a relative viability (NCI-H23; first compound 0.6325 µM) of 0.509, a relative viability (NCI-H23; first compound 2 µM) of 0.511 and a relative viability (NCI-H23; first compound 6.325 µM) of 0.568. The relative viability (NCI-H23; first compound 20 µM) was 0.476, the relative viability (SK-MES-1; first compound 0.2 µM) was 0.65 and the relative viability (SK-MES-1; first compound 0.6325 µM) was 0.711. For the same compound, the relative viability (SK-MES-1; first compound 2 µM) was 0.543, the relative viability (SK-MES-1; first compound 6.325 µM) was 0.633 and the relative viability (SK-MES-1; first compound 20 µM) was 0.436. The relative viability (NCI-H358; first compound 0.2 µM) was 0.734, the relative viability (NCI-H358; first compound 2 µM) was 0.653 and the relative viability (NCI-H358; first compound 6.325 µM) was 0.954. The relative viability (NCI-H358; first compound 20 µM) was 0.365, the relative viability (NCI-H1975; first compound 0.2 µM) was 0.879 and the relative viability (NCI-H1975; first compound 0.6325 µM) was 0.62. It also gave a relative viability (NCI-H1975; first compound 2 µM) of 0.604, a relative viability (NCI-H1975; first compound 6.325 µM) of 0.777 and a relative viability (NCI-H1975; first compound 20 µM) of 0.738. For the same compound, the relative viability (NCI-H520; first compound 0.2 µM) was 0.31, the relative viability (NCI-H520; first compound 0.6325 µM) was 0.213 and the relative viability (NCI-H520; first compound 2 µM) was 0.169. It also gave a relative viability (NCI-H520; first compound 6.325 µM) of 0.197, a relative viability (NCI-H520; first compound 20 µM) of 0.143 and a relative viability (NCI-H322M; first compound 0.2 µM) of 0.494. It also gave a relative viability (NCI-H322M; first compound 0.6325 µM) of 0.289, a relative viability (NCI-H322M; first compound 6.325 µM) of 0.57 and a relative viability (NCI-H322M; first compound 20 µM) of 0.13.
